Here are results for one substance from patent publication US10870678B2, “Chiral peptides” (ARCUATE THERAPEUTICS, INC., priority 2016, dated 2020).

For assay [1] the following is noted: Szeto et al. 2013; cited from earlier work.
The test system of assay [2] is mitochondria. To be noted: US 2004/0248808, U.S. Pat. No. 7,718,620; cited from earlier work.
Assay [3] deals with mitochondria. The settings on record: cited from earlier work.
Assay [4] has as its system immortalized human trabecular meshwork (iHTM) cells. The settings on record: Chen et al. 2011; cited from earlier work.
Assay [5] relates to HepG2 human liver cancer cell line. The assay is described as follows: Functional Mitochondrial Toxicity Assay, XFe96 Seahorse (HepG2). It counts as cell-based. To be noted: HepG2. The procedure:
The present Examples interrogate the two major energy producing pathways in the cell, mitochondrial respiration and glycolysis. HepG2 human liver cancer cell lines were dosed with test compounds and in real time the extracellular oxygen levels and pH were measured using the XFe96 flux analyser (Seahorse Biosciences). XFe Technology uses solid-state sensors to simultaneously measure both oxygen consumption rate (OCR) and extracellular acidification rate (ECAR) to determine effects on oxidative phosphorylation (OXPHOS) and glycolysis simultaneously. The cells were then subjected to sequential exposure to various inhibitors of mitochondrial functional to assess cellular metabolism.
A positive mitochondrial active compound is determined when there is a change in OCR or ECAR in the absence of cytotoxicity. Cytotoxicity was determined when both oxidative phosphorylation (OCR) and glycolysis (ECAR) were inhibited.
OCR is a measurement of oxygen content in extracellular media. Changes in OCR indicate effects on mitochondrial function, and can be bi-directional. A decrease is due to an inhibition of mitochondrial respiration, whilst an increase may indicate an uncoupler, in which respiration is not linked to energy production.
ECAR is the measurement of extracellular proton concentration (pH). An increase in signal means an increase in rate in number of pH ions (Thus decreasing pH value), and seen as an increase in glycolysis. Expressed as a fraction of basal control (rate prior to addition of compound).
Reverse capacity is the measured ability of cells to respond to an increase in energy demand, a reduction indicates mitochondrial dysfunction.
The Mitochondrial Stress Test is a series of sequential additions of compounds to the cells to assess a bioenergetics profile, and effects of test compounds on parameters such as proton leak and research capacity. This was used to assist in understanding potential mechanisms of mitochondrial toxicity. For example, it involves the addition of the follow compounds in this order:
Oligomycin is a known inhibitor of ATP synthase, and prevents the formation of ATP. This provides a measurement of the amount of oxygen consumption related to ATP production and ATP turnover. The addition of Oligomycin results in a decrease in OCR under normal conditions, and residual OCR is related to the natural proton leak.
Carbonyl cyanide 4-(trifluoromethoxy)phenylhydrazine (FCCP) is a protonphore, and is a known uncoupler of oxygen consumption from ATP production. This allows the maximum achievable transfer of electrons and oxygen consumption rate, and provides a measurement of reserve capacity.
Rotenone and antimycin A are known inhibitors of complex I and III of the electron transport chain, respectively. This inhibits electron transport completely, and any residual oxygen consumption is due to non-mitochondrial activity via oxygen requiring enzymes.

Assay [6] concerns glaucomatous human trabecular meshwork (GTM3) cells. To be noted: Chen et al. 2011; cited from earlier work.

Like-named read-outs stand apart in the source and are kept apart here.

One may read the AC50 as the concentration giving half of the maximal activity seen. Take “(D-Arg)(L-Dmt)(L-Lys)(L-Phe)-NH2 [Peptide I-1, reference compound]”: the “binding to cardiolipin within the inner mitochondria membrane” value in assay [1] is reported as “binding to cardiolipin”. Also, the “number of mitochondria undergoing MPT” value with mitochondria [2] is recorded as “significantly reduce”. Besides, the “reactive oxygen species (ROS) in the mitochondria” value in the assay with mitochondria [3] is on record as “reduces”. For the same substance, the “sustained oxidative stress induced by H2O2” value in assay [4] and in assay [6] was “prevent” in each case. Besides, the “ECAR ↑↓” value in assay [5] was “↓”. The “Reserve Capacity ↑↓” value in assay [5] is reported as “↑”. The entries for the “Potential Mechanism” value in assay [5] (listed as I-1 (1)) and in assay [5] (listed as I-1 (2)) were “No effect” and “Other”, respectively. Besides, the AC50 was over 100 µM in assay [5] (listed as I-1 (1), read-out: ECAR AC50); over 100 µM in assay [5] (listed as I-1 (1), read-out: Reserve Capacity AC50); over 100 µM in assay [5] (listed as I-1 (2), read-out: ECAR AC50); over 100 µM in assay [5] (listed as I-1 (2), read-out: Reserve Capacity AC50); over 100 µM in assay [5] (read-out: OCR AC50). Also, the “ECAR MEC” value in assay [5] (listed as I-1 (2)) came out at 14.3 µM. The “Reserve Capacity MEC” value in assay [5] (listed as I-1 (2)) turned out to be 90.3 µM.
